{"source": "paper PMC12800093", "about": "(Nature Communications, 2025)", "tested_on": "Mycobacterium tuberculosis complex (MTBC) clinical isolates", "details": "96 h", "note": "Where a SMILES comes first, the peptide text is derived from it. [ ]: non-standard residue; d: D form.", "data": [{"smiles": "CC(C)[C@@H](NC(=O)[C@H](N)Cc1c[nH]c2ccccc12)C(=O)N[C@@H](C(=O)N[C@H](Cc1c[nH]c2ccccc12)C(=O)N[C@H](Cc1c[nH]cn1)C(=O)N[C@H](CCCNC(=N)N)C(=O)N[C@H](CCCNC(=N)N)C(=O)N[C@H](Cc1c[nH]c2ccccc12)C(=O)N[C@H](Cc1c[nH]c2ccccc12)C(=O)N[C@H](Cc1c[nH]cn1)C(=O)N[C@H](Cc1c[nH]c2ccccc12)C(=O)N[C@H](CCCNC(=N)N)C(=O)N[C@H](CCCCN)C(N)=O)C(C)C", "note": "[MAD1-RI] (H-[dW][dV][dV][dW][dH][dR][dR][dW][dW][dH][dW][dR][dK]-NH2)", "values": [{"measurement": "MICs against a panel of drug-resistant clinical Mtb isolates", "value": "≤ 40", "unit": "µM"}]}]}
